The source made the active and inactive calls. No cut-off for these calls is given here.
Experiments:
Assay type in all cases: functional, tissue-based
Myometrium [1] = assay: Induction of contraction in beta-estradiol stimulated rat myometrium
Myometrium [2] = assay: Induction of contraction per minute in beta-estradiol stimulated rat myometrium at 0.6 uM
Myometrium [3] = assay: Induction of contraction per minute in beta-estradiol stimulated rat myometrium at 1 nM

Question: For `CC[C@H](C)[C@@H]1NC(=O)[C@H](Cc2ccc(O)cc2)NC(=O)[C@@H](N)CSSC[C@@H](C(=O)N2CCC[C@H]2C(=O)N[C@@H](CC(C)C)C(=O)NCC(=O)NC[C@H]2O[C@@H]3O[C@H]4[C@H](O)[C@@H](O)[C@@H](O[C@H]5[C@H](O)[C@@H](O)[C@@H](O[C@H]6[C@H](O)[C@@H](O)[C@@H](O[C@H]7[C@H](O)[C@@H](O)[C@@H](O[C@H]8[C@H](O)[C@@H](O)[C@@H](O[C@H]9[C@H](O)[C@@H](O)[C@@H](O[C@H]2[C@H](O)[C@H]3O)O[C@@H]9CO)O[C@@H]8CO)O[C@@H]7CO)O[C@@H]6CO)O[C@@H]5CO)O[C@@H]4CO)NC(=O)[C@H](CC(N)=O)NC(=O)[C@H](CCC(N)=O)NC1=O`, which EC50 (Myometrium [1]) is on record?
Answer: The EC50 was 400 nM.

Question: For `CC[C@H](C)[C@@H]1NC(=O)[C@H](Cc2ccc(O)cc2)NC(=O)[C@H](N)CSSC[C@@H](C(=O)N2CCC[C@H]2C(=O)N[C@@H](CC(C)C)C(=O)NCC(=O)NC[C@H]2O[C@@H]3O[C@H]4[C@H](O)[C@@H](O)[C@@H](O[C@H]5[C@H](O)[C@@H](O)[C@@H](O[C@H]6[C@H](O)[C@@H](O)[C@@H](O[C@H]7[C@H](O)[C@@H](O)[C@@H](O[C@H]8[C@H](O)[C@@H](O)[C@@H](O[C@H]9[C@H](O)[C@@H](O)[C@@H](O[C@H]2[C@H](O)[C@H]3O)O[C@@H]9CO)O[C@@H]8CO)O[C@@H]7CO)O[C@@H]6CO)O[C@@H]5CO)O[C@@H]4CO)NC(=O)[C@H](CC(N)=O)NC(=O)[C@H](CCC(N)=O)NC1=O`, which Activity (Myometrium [2]) is on record?
Answer: The Activity was “Active”.

Question: How did the EC50 (Myometrium [1]) turn out when `CC[C@H](C)[C@@H]1NC(=O)[C@H](Cc2ccc(O)cc2)NC(=O)[C@@H](N)CSSC[C@@H](C(=O)N2CCC[C@H]2C(=O)N[C@@H](CC(C)C)C(=O)NCC(N)=O)NC(=O)[C@H](CC(N)=O)NC(=O)[C@H](CCC(N)=O)NC1=O` [OXYTOCIN] was run?
Answer: Its EC50 is 1.7 nM.

Question: What about the Activity (Myometrium [3]) of the same compound?
Answer: The Activity was “Active”.
